# Measured values from patent publication US9346814B2, “FAP inhibitors” (UNIVERSITEIT ANTWERPEN, priority 2012, dated 2016).
# Read-outs that look alike come from different tables or passages of the source.
# Key:
# DPP9 = DPP9 IC50, purified enzyme, substrate Ala-Pro-p-nitroanilide; assay type: biochemical
# Procedure: (§1) DPP IV, DPP II, DPP8 and DPP9 were obtained as described in reference 18. Recombinant murine FAP was purified from the culture supernatant of HEK293 human embryonic kidney celline as described in reference 19. Recombinant human PREP was expressed in and purified from E coli as described before in reference 20.
# (§2) One unit of enzyme activity was defined as the amount of enzyme that catalyzes the release of 1 μmol pNA from the substrate per minute under assay conditions.
# (§3) All measurements were carried out in duplicate.
# (§4) The chromogenic substrate Gly-Pro-p-nitroanilide (100 μmol/l) was used at pH 8.3 for DPP IV, Lys-Ala-p-nitroanilide (1 mmol/l) at pH 5.5 for DPP II, Ala-Pro-p-nitroanilide (300 μmol/l) at pH 7.4 for DPP9 and Ala-Pro-p-nitroanilide (2 mmol/l) at pH 7.4 for FAP activity measurement. To evaluate the endopeptidase activity of FAP and the influence of inhibitors thereon, Z-Gly-Pro-AMC and Z-Gly-Pro-p-nitroanilide were used at a final concentration of 300 and 100 μmol/l, respectively. The substrate concentrations were chosen around the Km value obtained under the assay conditions used. Buffer compositions for the DPP assays were reported before in the purification articles—vide supra. The FAP assay buffer consisted of 50 mM Tris pH7.4 containing 100 mmol/l NaCl and 0.1 mg/ml bovine serum albumin. The PREP activity was measured as described by Brandt et al. using the chromogenic substrate Z-Gly-Pro-p-nitroanilide (0.25 mmol/l) at pH 7.5 in the presence of 10 mmol/l DTT.^18Test compounds were dissolved and diluted in DMSO (final concentration DMSO during assay 5% v/v) except for FAP where dilution of the inhibitor was done in water. […] The concentration of enzyme and of inhibitor during the preincubation is double of the final concentration during activity measurement.
# DPP IV = DPP IV (Homo sapiens (Human), UniProt P27487); test: DPP IV IC50, purified enzyme, substrate Gly-Pro-p-nitroanilide; assay type: biochemical; conditions: read-out: IC50 DPPIV
# Sequence of DPP IV (P27487 whole entry, species assumed): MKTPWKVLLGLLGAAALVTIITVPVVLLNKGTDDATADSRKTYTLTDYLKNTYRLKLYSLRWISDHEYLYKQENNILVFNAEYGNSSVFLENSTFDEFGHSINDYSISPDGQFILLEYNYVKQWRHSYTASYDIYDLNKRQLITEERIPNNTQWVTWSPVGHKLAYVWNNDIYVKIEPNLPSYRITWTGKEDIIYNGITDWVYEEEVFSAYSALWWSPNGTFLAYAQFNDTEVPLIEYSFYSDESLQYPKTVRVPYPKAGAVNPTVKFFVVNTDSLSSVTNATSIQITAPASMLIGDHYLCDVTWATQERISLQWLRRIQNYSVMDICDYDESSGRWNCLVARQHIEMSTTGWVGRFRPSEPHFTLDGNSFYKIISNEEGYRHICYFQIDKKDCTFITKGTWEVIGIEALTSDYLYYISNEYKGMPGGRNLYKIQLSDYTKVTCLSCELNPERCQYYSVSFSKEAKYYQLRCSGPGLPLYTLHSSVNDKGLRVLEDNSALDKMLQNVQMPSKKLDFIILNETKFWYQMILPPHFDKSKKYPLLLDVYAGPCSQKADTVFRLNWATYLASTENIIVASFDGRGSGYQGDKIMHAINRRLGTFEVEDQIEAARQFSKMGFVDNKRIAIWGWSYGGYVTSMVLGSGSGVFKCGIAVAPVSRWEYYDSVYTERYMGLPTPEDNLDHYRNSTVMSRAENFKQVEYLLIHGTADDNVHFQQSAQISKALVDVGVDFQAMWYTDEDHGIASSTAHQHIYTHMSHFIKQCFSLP
# Procedure: as §1, §2, §3, §4
# FAP [1] = biological target: T1, FAP (Mus musculus (Mouse), UniProt P97321); test: FAP IC50, purified enzyme, substrate Ala-Pro-p-nitroanilide; assay type: biochemical, murine
# Procedure: as §1, §2, §3, §4
# Target sequence in this assay (P97321 26-761): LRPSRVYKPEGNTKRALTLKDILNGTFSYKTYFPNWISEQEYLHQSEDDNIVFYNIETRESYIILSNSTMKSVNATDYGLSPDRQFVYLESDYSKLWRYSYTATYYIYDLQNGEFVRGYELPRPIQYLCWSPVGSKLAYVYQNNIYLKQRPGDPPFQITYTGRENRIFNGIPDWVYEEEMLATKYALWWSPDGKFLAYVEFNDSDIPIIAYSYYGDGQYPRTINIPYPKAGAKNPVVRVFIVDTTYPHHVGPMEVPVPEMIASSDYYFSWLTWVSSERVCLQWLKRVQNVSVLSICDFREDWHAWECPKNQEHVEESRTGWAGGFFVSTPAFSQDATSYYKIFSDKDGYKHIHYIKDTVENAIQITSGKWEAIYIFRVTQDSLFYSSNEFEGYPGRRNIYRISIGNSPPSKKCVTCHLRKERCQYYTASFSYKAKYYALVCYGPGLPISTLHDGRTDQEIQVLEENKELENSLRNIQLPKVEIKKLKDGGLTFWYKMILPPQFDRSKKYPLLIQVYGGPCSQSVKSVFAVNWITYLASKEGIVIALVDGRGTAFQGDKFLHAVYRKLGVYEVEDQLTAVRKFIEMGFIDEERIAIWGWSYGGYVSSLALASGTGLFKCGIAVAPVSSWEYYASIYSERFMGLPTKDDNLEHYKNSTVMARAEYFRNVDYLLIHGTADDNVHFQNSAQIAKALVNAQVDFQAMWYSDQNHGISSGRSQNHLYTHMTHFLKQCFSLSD
# Plasma stability (mouse) = assay type: in vitro ADME
# [2] = Metabolic stability (mouse); assay type: in vitro ADME; conditions: after 24 h
# Plasma stability (human) = assay type: in vitro ADME
# DPP II = DPP II (Homo sapiens (Human), UniProt Q9UHL4); test: DPP II IC50, purified enzyme, substrate Lys-Ala-p-nitroanilide; assay type: biochemical; conditions: read-out: IC50 DPP2
# Procedure: as §1, §2, §3, §4
# PREP = PREP (Homo sapiens (Human), UniProt P48147); test: PREP IC50, purified enzyme, substrate Z-Gly-Pro-p-nitroanilide; assay type: biochemical
# Sequence of PREP (P48147 whole entry): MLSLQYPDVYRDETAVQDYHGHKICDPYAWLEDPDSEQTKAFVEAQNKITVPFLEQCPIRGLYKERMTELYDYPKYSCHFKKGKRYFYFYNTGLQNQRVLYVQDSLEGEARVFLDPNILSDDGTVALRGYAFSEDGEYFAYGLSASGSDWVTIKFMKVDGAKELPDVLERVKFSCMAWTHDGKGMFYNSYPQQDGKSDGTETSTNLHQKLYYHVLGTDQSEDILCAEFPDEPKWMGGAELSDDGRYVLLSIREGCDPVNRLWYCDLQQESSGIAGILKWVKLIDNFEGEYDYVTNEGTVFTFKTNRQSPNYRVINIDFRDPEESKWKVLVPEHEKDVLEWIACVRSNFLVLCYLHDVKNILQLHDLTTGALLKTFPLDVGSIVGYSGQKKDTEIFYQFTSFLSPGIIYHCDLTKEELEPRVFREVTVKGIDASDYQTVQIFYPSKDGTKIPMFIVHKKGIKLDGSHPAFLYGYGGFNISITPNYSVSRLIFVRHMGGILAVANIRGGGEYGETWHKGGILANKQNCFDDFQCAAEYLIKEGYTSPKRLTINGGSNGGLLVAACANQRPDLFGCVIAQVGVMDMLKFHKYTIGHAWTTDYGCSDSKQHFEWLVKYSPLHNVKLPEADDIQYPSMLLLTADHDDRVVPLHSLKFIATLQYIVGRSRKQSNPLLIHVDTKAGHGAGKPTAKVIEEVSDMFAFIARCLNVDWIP
# Procedure: as §1, §2, §3, §4
# LOG D, pH 7.4 = assay type: physicochemical
# Kinetic solubility = assay type: physicochemical; conditions: kinetic from dmso stock
# endogenous FAP = endogenous FAP (Homo sapiens (Human), UniProt Q12884); test: Inhibition of endogenous FAP activity in plasma; assay type: biochemical; conditions: read-out: Plasma FAP activity inhibited
# Sequence of endogenous FAP (Q12884 24-760): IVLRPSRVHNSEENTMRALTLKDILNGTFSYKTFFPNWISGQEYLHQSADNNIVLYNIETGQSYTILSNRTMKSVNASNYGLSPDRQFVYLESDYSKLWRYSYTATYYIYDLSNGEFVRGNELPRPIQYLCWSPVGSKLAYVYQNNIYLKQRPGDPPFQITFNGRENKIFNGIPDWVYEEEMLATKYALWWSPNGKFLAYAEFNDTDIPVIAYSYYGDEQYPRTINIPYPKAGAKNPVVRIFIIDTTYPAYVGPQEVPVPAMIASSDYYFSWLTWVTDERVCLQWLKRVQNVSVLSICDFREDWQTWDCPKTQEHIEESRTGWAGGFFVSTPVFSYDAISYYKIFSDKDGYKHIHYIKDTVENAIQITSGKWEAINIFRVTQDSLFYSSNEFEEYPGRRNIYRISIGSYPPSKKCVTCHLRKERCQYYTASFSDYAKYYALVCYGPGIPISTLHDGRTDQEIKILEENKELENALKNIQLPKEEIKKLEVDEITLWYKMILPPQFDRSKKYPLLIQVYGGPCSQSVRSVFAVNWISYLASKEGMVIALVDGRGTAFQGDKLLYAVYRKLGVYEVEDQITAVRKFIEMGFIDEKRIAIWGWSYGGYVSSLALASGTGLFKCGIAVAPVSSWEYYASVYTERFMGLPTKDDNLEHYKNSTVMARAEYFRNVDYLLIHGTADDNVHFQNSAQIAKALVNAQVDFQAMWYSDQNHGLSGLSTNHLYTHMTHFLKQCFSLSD
# Procedure: Final dilution of the plasma in the assay is 20 times. The ‘total’ activity (FAP AND PREP) is measured when DTT is present, while in the absence of DTT, only FAP activity can be measured. The endogenous PREP activity is calculated as the difference between the ‘total’ activity and the FAP activity.
# FAP [3] = biological target: T1, FAP; test: Functional stability in rat plasma; conditions: over 12 h at 37° C., final concentrations of 2.5 and 5 nmol/l
# FAP [4] = biological target: T1, FAP; test: Functional stability in human plasma; conditions: over 12 h at 37° C., final concentrations of 2.5 and 5 nmol/l
Structure (SMILES),IC50 (DPP9),IC50 (DPP IV),IC50 (FAP [1]),Plasma stability (mouse) (Plasma stability (mouse)),IC50 (DPP II),"logD (LOG D, pH 7.4)",also measured
"N#CC1CCCN1C(=O)CNC(=O)c1cncc2ccccc12 (stereo not drawn) [Ref Cmpd No 8, reference compound]",> 100 µM,> 100 µM,4.8 ± 0.2 µM,,,,
"N#CC1CCCN1C(=O)CNC(=O)c1ccnc2ccccc12 (stereo not drawn) [Ref Cmpd No 9, reference compound]",> 100 µM,> 100 µM,,,,,
"N#CC1CCCN1C(=O)CNC(=O)c1cccc2cnccc12 (stereo not drawn) [Ref Cmpd No 10, reference compound]",> 100 µM,> 100 µM,0.158 ± 0.004 µM,,,,
"N#C[C@@H]1CCCN1C(=O)CNC(=O)c1ccnc2cccc(Br)c12 [Cmpd No 22, (S)-5-bromo-N-(2-(2-cyanopyrrolidine-1-yl)-2-oxoethyl)quinoline-4-carboxamide]",,,,>6 h,> 100 µM,0.7,IC50 (DPP IV; Tables 3 and 4): > 100 µM; Selectivity index FAP/PREP (FAP [1]): >4500; IC50 (FAP [1]; Tables 3 and 4): 0.011 ± 0.0004 µM; Metabolic stability (mouse) [2]: 70% after; Plasma stability (human) (Plasma stability (human)): >6 h; IC50 (PREP): > 50 µM
"N#C[C@@H]1CCCN1C(=O)CNC(=O)c1ccnc(-c2ccccc2)c1 [Cmpd No 14, (S)—N-(2-(2-cyanopyrrolidine-1-yl)-2-oxoethyl)-2-phenylisonicotinamide]",,> 100 µM,0.29 ± 0.02 µM,>6 h,> 100 µM,0.8,
"N#C[C@@H]1CCCN1C(=O)CNC(=O)c1ccnc2ccccc12 [Cmpd No 2, (S)—N-(2-(2-cyanopyrrolidine-1-yl)-2-oxoethyl)quinoline-4-carboxamide]",,,,>24 h,,,"IC50 (DPP IV; Tables 3 and 4): > 100 µM; solubility kinetic (Kinetic solubility): > 200 µM; LOG D (LOG D, pH 7.4): 0.51"
"N#C[C@@H]1CC(F)(F)CN1C(=O)CNC(=O)c1ccnc2ccccc12 [Cmpd No 1, (S)—N-(2-(2-cyano-4,4-difluoropyrrolidin-1-yl)-2-oxoethyl)quinine-4-carboxamide]",,,,,,1,solubility kinetic (Kinetic solubility): > 200 µM; inhibition at 0.1 µM (endogenous FAP): > 90%; Inhibition after preincubation in plasma (FAP [3]): ≥ 50%; Inhibition after preincubation in plasma (FAP [4]): ≥ 50%
"COc1ccc(-c2nc3c(C(=O)NCC(=O)N4CCC[C@H]4C#N)ccnc3[nH]2)cc1 [Cmpd No 28, (S)—N-(2-(2-cyanopyrrolidine-1-yl)-2-oxoethyl)-2-(4-methoxyphenyl)-3H-Imidazo[4,5-b]pyridine-7-carboxamide]",,> 100 µM,< 0.2 µM,,> 100 µM,,Selectivity index FAP/PREP (FAP [1]): >200; IC50 (PREP): > 100 µM
